Source: patent US10875851B2, “Factor XIIa inhibitors” (Merck Sharp & Dohme Corp., priority 2016, dated 2020)

molecular target: human Factor XIIa (Homo sapiens (Human), UniProt P00748); assay: Factor XIIa Assay; format: biochemical; settings: purified human Factor XIIa 500 pM; substrate n-Acetyl-Lys-Pro-Arg-AFC 100 μM; pH 7.4; read-out: FXIIa IC50
Procedure, shortened: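 Purified human FXIIa at 500 pM final with 100 μM n-Acetyl-Lys-Pro-Arg-AFC in 50 mM HEPES, 150 mM NaCl, 5 mM CaCl2, 0.1% PEG 8000, pH 7.4, at room temperature or 37° C. Initial fluorogenic hydrolysis rates measured after enzyme–inhibitor equilibration; IC50 taken where Vi=Vo/2.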

Chain of human Factor XIIa (P00748 373-615): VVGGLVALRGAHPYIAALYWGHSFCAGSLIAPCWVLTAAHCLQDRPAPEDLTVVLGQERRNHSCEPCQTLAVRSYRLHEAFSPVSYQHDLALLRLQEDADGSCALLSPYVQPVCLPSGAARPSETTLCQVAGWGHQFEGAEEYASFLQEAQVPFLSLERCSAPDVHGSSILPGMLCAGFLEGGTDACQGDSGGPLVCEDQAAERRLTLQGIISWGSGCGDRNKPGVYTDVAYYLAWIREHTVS

Compound | IC50 [nM]
COc1cc(CNC(=O)[C@@H]2CN(C3=N[C@@H](C)[C@H](c4ccccc4)O3)CCN2C(=O)[C@@H](CCCCN2CCCCC2)NC(C)C)ccc1CN [Example 118, (2S)-N-[4-(aminomethyl)-3-methoxybenzyl]-1-[N-(1-methylethyl)-6-piperidin-1-yl-D-norleucyl]-4-[(4S,5S)-4-methyl-5-phenyl-4,5-dihydro-1,3-oxazol-2-yl]piperazine-2-carboxamide] | 8.1
O=C(NCc1cccs1)[C@@H]1CN(C(=O)Oc2ccccc2Cl)CCN1C(=O)[C@@H](CCCCN1CCCCC1)NC1CCC2(CC1)CCN(Cc1ccccc1)C2 (stereo partly drawn) [Example 88, 2-chlorophenyl (3S)-4-[N-(2-benzyl-2-azaspiro[4.5]dec-8-yl)-6-piperidin-1-yl-D-norleucyl]-3-[(thiophen-2-ylmethyl)carbamoyl]piperazine-1-carboxylate] | 0.9
Cc1ccc(OC(=O)N2CCN(C(=O)[C@@H](CCCCN(C)C)N(C)C3CCCCC3)[C@H](C(=O)NCc3cccs3)C2)c(Cl)c1C [Example 101, 2-chloro-3,4-dimethylphenyl (3S)-4-(N^2-cyclohexyl-N^2,N^6,N^6-trimethyl-D-lysyl)-3-[(thiophen-2-ylmethyl)carbamoyl]piperazine-1-carboxylate] | 0.1
O=C(NCc1cccs1)[C@@H]1CN(C(=O)Oc2ccccc2Cl)CCN1C(=O)[C@@H](CCCCN1CCCS1(=O)=O)NC1CCCCC1 [Example 77, 2-chlorophenyl (3S)-4-[N-cyclohexyl-6-(1,1-dioxidoisothiazolidin-2-yl)-D-norleucyl]-3-[(thiophen-2-ylmethyl)carbamoyl]piperazine-1-carboxylate] | 4.6
COc1cc(CNC(=O)[C@@H]2CN(C(=O)Oc3ccc4ccccc4c3Cl)CCN2C(=O)[C@@H](CCCCNS(C)(=O)=O)NC2CCC3(CC2)CCN(Cc2ccccc2)C3)ccc1CN (stereo partly drawn) [Example 74, 1-chloronaphthalen-2-yl (3S)-3-{[4-(aminomethyl)-3-methoxybenzyl]carbamoyl}-4-[N^2-(2-benzyl-2-azaspiro[4.5]dec-8-yl)-N^6-(methylsulfonyl)-D-lysyl]piperazine-1-carboxylate] | 3.7
COc1cc(CNC(=O)[C@@H]2CN(C(=O)Oc3ccccc3Cl)CCN2C(=O)[C@@H](CCCCNS(C)(=O)=O)NC2CCC3(CC2)CCN(Cc2ccccc2)C3)ccc1CN (stereo partly drawn) [Example 85, 2-chlorophenyl (3S)-3-{[4-(aminomethyl)-3-methoxybenzyl]carbamoyl}-4-[N^2-(2-benzyl-2-azaspiro[4.5]dec-8-yl)-N^6-(methylsulfonyl)-D-lysyl]piperazine-1-carboxylate] | 8.3
COC(N)c1cccc(OC(=O)N2CCN(C(=O)[C@@H](CCCCNS(C)(=O)=O)NC3CCC4(CC3)CCN(Cc3ccccc3)C4)[C@H](C(=O)NCc3cccs3)C2)c1 (stereo partly drawn) [Example 75, 3-[amino(methoxy)methyl]phenyl (3S)-4-[N^2-(2-benzyl-2-azaspiro[4.5]dec-8-yl)-N^6-(methylsulfonyl)-D-lysyl]-3-[(thiophen-2-ylmethyl)carbamoyl]piperazine-1-carboxylate] | 5.7
CN(C)CCCC[C@H](C(=O)N1CCN(C2=NC(C)(C)C(c3ccccc3)O2)C[C@H]1C(=O)NCc1cccc(Cl)c1)N(C)C (stereo partly drawn) [Example 139, (2S)-N-(3-chlorobenzyl)-4-(4,4-dimethyl-5-phenyl-4,5-dihydro-1,3-oxazol-2-yl)-1-(N^2,N^2,N^6,N^6-tetramethyl-D-lysyl)piperazine-2-carboxamide] | 52.4
Cc1ncnc2c(OC(=O)N3CCN(C(=O)[C@@H](CC4CCCCC4)NC4CCCCC4)[C@H](C(=O)NCc4cccs4)C3)cccc12 [Example 29, 4-methylquinazolin-8-yl (3S)-4-(N,3-dicyclohexyl-D-alanyl)-3-[(thiophen-2-ylmethyl)carbamoyl]piperazine-1-carboxylate] | 3.3

Results, then the molecule that gave them:

IC50 [nM] | Compound
3 | C[C@@H]1N=C(N2CCN(C(=O)[C@@H](CCCCN3CCCCC3)NC3CCC(CN)CC3)[C@H](C(=O)NCc3cc4cnccc4s3)C2)O[C@H]1c1ccccc1 (stereo partly drawn) [Example 174, (2S)-1-{N-[4-(aminomethyl)cyclohexyl]-6-piperidin-1-yl-D-norleucyl}-4-[(4S,5S)-4-methyl-5-phenyl-4,5-dihydro-1,3-oxazol-2-yl]-N-(thieno[3,2-c]pyridin-2-ylmethyl)piperazine-2-carboxamide]
29 | C[C@@H]1N=C(N2CCN(C(=O)[C@@H](CCCCN3CCCCC3)NC3CCC(CN)CC3)[C@H](C(=O)NCc3cccc(Cl)c3)C2)O[C@H]1c1ccccc1 (stereo partly drawn) [Example 176, (2S)-1-{N-[4-(aminomethyl)cyclohexyl]-6-piperidin-1-yl-D-norleucyl}-N-(3-chlorobenzyl)-4-[(4S,5S)-4-methyl-5-phenyl-4,5-dihydro-1,3-oxazol-2-yl]piperazine-2-carboxamide]
1.8 | C[C@@H]1N=C(N2CCN(C(=O)[C@@H](CCCCN(C)C)N(C)C3CCC4(CC3)CCN(Cc3ccccc3)C4)[C@H](C(=O)NCc3cccs3)C2)O[C@H]1c1ccccc1 (stereo partly drawn) [Example 131, (2S)-1-[N^2-(2-benzyl-2-azaspiro[4.5]dec-8-yl)-N^2,N^6,N^6-trimethyl-D-lysl]-4-[(4S,5S)-4-methyl-5-phenyl-4,5-dihydro-1,3-oxazol-2-yl]-N-(thiophen-2-ylmethyl)piperazine-2-carboxamide]
21.1 | CS(=O)(=O)NCCCC[C@@H](NC1CCCCC1)C(=O)N1CCN(C2=NCC3(CCCCC3)O2)C[C@H]1C(=O)NCc1cccs1 [Example 126, (2S)-1-[N^2-cyclohexyl-N^6-(methylsulfonyl)-D-lysyl]-4-(1-oxa-3-azaspiro[4.5]dec-2-en-2-yl)-N-(thiophen-2-ylmethyl)piperazine-2-carboxamide]
19 | CC1(C)N=C(N2CCN(C(=O)[C@@H](CC3CCCCC3)NC3CCCCC3)[C@H](C(=O)NCc3cccs3)C2)OC1c1ccccc1 (stereo partly drawn) [Example 140, (2S)-1-(N,3-dicyclohexyl-D-alanyl)-4-(4,4-dimethyl-5-phenyl-4,5-dihydro-1,3-oxazol-2-yl)-N-(thiophen-2-ylmethyl)piperazine-2-carboxamide]
17.8 | C[C@@H]1N=C(N2CCN(C(=O)[C@@H](CCCCNS(C)(=O)=O)NC3CCCCC3)[C@H](C(=O)NCc3cccs3)C2)O[C@H]1c1cccc(C#N)c1 [Example 116, (2S)-4-[(4S,5S)-5-(3-cyanophenyl)-4-methyl-4,5-dihydro-1,3-oxazol-2-yl]-1-[N^2-cyclohexyl-N^6-(methylsulfonyl)-D-lysyl]-N-(thiophen-2-ylmethyl)piperazine-2-carboxamide]
23 | C[C@@H]1N=C(N2CCN(C(=O)[C@@H](CCCCNS(C)(=O)=O)NC3CCCCC3)[C@H](C(=O)NCc3cccs3)C2)O[C@H]1c1cccc(Cl)c1 [Example 125, (2S)-4-[(4S,5S)-5-(3-chlorophenyl)-4-methyl-4,5-dihydro-1,3-oxazol-2-yl]-1-[N^2-cyclohexyl-N^6-(methylsulfonyl)-D-lysyl]-N-(thiophen-2-ylmethyl)piperazine-2-carboxamide]
1.5 | C[C@@H]1N=C(N2CCN(C(=O)[C@H](NC3CCC(C(N)=O)CC3)[C@H]3CC[C@H](N4CCCCC4)CC3)[C@H](C(=O)NCc3cccs3)C2)O[C@H]1c1ccccc1 (stereo partly drawn) [Example 119, (2S)-1-[(2R)-2-[(4-carbamoylcyclohexyl)amino]-2-(trans-4-piperidin-1-ylcyclohexyl)acetyl]-4-[(4S,5S)-4-methyl-5-phenyl-4,5-dihydro-1,3-oxazol-2-yl]-N-(thiophen-2-ylmethyl)piperazine-2-carboxamide]
